In US10611750B2, “Tetrahydroquinoline compositions as bet bromodomain inhibitors” (FORMA Therapeutics, Inc., priority 2013, dated 2020):

Legend:
[1] = target: T1, BRD4 Bromodomain 1 (BRD4 BD1) (Homo sapiens, UniProt O60885); test: AlphaScreen binding assay, BRD4 BD1; details: His-tagged BRD4 BD1 50 nM, biotinylated H4 (1-21) K5/8/12/16 tetra-acetylated peptide 50 nM, compounds listed under IC50 range headings
T1 construct: 44-168 and BRD4 BD2
How it was run: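 An AlphaScreen competition format was used with His-BRD4 BD1 or BD2 and biotin-H4 K5/8/12/16-acetyl peptide, each at matched final levels of 50 nM (BD1) or 100 nM (BD2). Incubation in HEPES/NaCl buffer with 0.1% BSA and 0.01% Triton X-100 ran ≥1 h before IC50 determination.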

[2] = target: T2, BRD4 Bromodomain 2 (BRD4 BD2) (Homo sapiens, UniProt O60885); test: AlphaScreen binding assay, BRD4 BD2; details: His-tagged BRD4 BD2 100 nM, biotinylated H4 (1-21) K5/8/12/16 tetra-acetylated peptide 100 nM, compounds listed under IC50 range headings
T2 construct: 333-460 were cloned, expressed, and purified to homogeneity
Method: The binding of Example compounds to BRD4 Bromodomain 1 and BRD4 Bromodomain 2 was assessed using 384-well AlphaScreen assay technology. His-epitope tagged BRD4 BD144-168 and BRD4 BD2333-460 were cloned, expressed, and purified to homogeneity. BRD4 BD1 and BRD4 BD2 binding and inhibition was assessed by monitoring the engagement of biotinylated Histone H4 (1-21) K5/8/12/16 tetra-acetylated peptide with the targets using the AlphaScreen technology (PerkinElmer). Specifically, in a 384-well black or white flat bottom plate, BRD4 BD1 (50 nM final) or BRD4 BD2 (100 nM final) was combined with peptide (50 nM final for BD1 or 100 nM final for BD2) in 50 mM HEPES (pH 7.3), 100 mM NaCl, 0.1% (w/v) BSA, and 0.01% (w/v) Triton X-100 either in the presence of DMSO (final 1.25% DMSO) or compound dilution series in DMSO. Alpha streptavidin donor beads and Nickel-chelate acceptor beads were added to a final concentration of 10 μg/ml each. After a minimum of 1 hour equilibration, plates were read on a BMG PHERAstar FS multi-label reader (BMG LabTech). The half maximal inhibitory concentration (IC50) values were calculated using IDBS Activity Base software with a four parameter logistic curve fit by the equation y=A+((B−A)/(1+((C/x)^D))), wherein A denotes the bottom plateau of the curve, B denotes the top plateau of the curve, C denotes the x value at the middle of the curve, D denotes the slope factor, x denotes the original known x values, and y denotes the original known y values. Data was fitted using the Levenburg Marquardt algorithm.

How did the IC50 [1] turn out when `CC(=O)N1c2ccc(-c3ccc(S(C)(=O)=O)cc3)c(Oc3ccccc3)c2CCC1C` (racemic) [I-111, rac-1-(2-methyl-6-(4-(methylsulfonyl)phenyl)-5-phenoxy-3,4-dihydroquinolin-1(2H)-yl)ethanone] was run?
The IC50 was 1000 to 10000 nM.

And the IC50 [2]?
The IC50 was < 50 nM.

`CC(=O)N1c2cccc(Oc3ccccc3)c2CCC1C` (racemic) [I-112, rac-1-(2-methyl-5-phenoxy-3,4-dihydroquinolin-1(2H)-yl)ethanone] was tested. Which IC50 [1] did it give?
Its IC50 is ≥ 10000 nM.

And the IC50 [2]?
The IC50 was 50 to 500 nM.

How did the IC50 [1] turn out when `CC(=O)N1c2ccc(-c3cnn(CCO)c3)c(OCC(=O)N(C)C)c2CC[C@@H]1C` [I-2, (S)-2-(1-acetyl-6-(1-(2-hydroxyethyl)-1H-pyrazol-4-yl)-2-methyl-1,2,3,4-tetrahydroquinolin-5-yloxy)-N,N-dimethylacetamide] was run?
Its IC50 is 1000 to 10000 nM.

What about the IC50 [2] of the same compound?
Its IC50 is 50 to 500 nM.

What does the source list for `COC(=O)N1c2ccc(-c3cnn(CCO)c3)c(OCC(=O)N(C)C)c2CC[C@@H]1C` [I-3, (S)-methyl 5-(2-(dimethylamino)-2-oxoethoxy)-6-(1-(2-hydroxyethyl)-1H-pyrazol-4-yl)-2-methyl-3,4-dihydroquinoline-1(2H)-carboxylate]?
IC50 [1]: 1000 to 10000 nM; IC50 [2]: 50 to 500 nM

What does the source list for `CCNC(=O)COc1c(-c2cnn(C3CC3)c2)ccc2c1CC[C@H](C)N2C(C)=O` [I-4, (S)-2-(1-acetyl-6-(1-cyclopropyl-1H-pyrazol-4-yl)-2-methyl-1,2,3,4-tetrahydroquinolin-5-yloxy)-N-ethylacetamide]?
IC50 [1]: 1000 to 10000 nM; IC50 [2]: 50 to 500 nM

Which results are given for `CC(=O)N1c2ccc(-c3cnn(C4CC4)c3)c(OCCF)c2CC[C@@H]1C` [I-5, (S)-1-(6-(1-cyclopropyl-1H-pyrazol-4-yl)-5-(2-fluoroethoxy)-2-methyl-3,4-dihydroquinolin-1(2H)-yl)ethanone]?
IC50 [1]: 1000 to 10000 nM; IC50 [2]: 50 to 500 nM

`CC(=O)N1c2ccc(-c3cnn(C4CC4)c3)c(OCC(=O)N(C)C3CC3)c2CC[C@@H]1C` [I-6, (S)-2-(1-acetyl-6-(1-cyclopropyl-1H-pyrazol-4-yl)-2-methyl-1,2,3,4-tetrahydroquinolin-5-yloxy)-N-cyclopropyl-N-methylacetamide] was tested. Which IC50 [1] did it give?
Its IC50 is 1000 to 10000 nM.

What about the IC50 [2] of the same compound?
Its IC50 is ≥ 500 nM.

Which results are given for `COC(=O)N1c2ccc(-c3cnn(C4CC4)c3)c(OCC(F)(F)F)c2CC[C@@H]1C` [I-9, (S)-methyl 6-(1-cyclopropyl-1H-pyrazol-4-yl)-2-methyl-5-(2,2,2-trifluoroethoxy)-3,4-dihydroquinoline-1(2H)-carboxylate]?
IC50 [1]: ≥ 10000 nM; IC50 [2]: ≥ 500 nM

`COC(=O)N1c2ccc(-c3cnn(C4CC4)c3)c(OCC(F)F)c2CC[C@@H]1C` [I-10, (S)-methyl 6-(1-cyclopropyl-1H-pyrazol-4-yl)-5-(2,2-difluoroethoxy)-2-methyl-3,4-dihydroquinoline-1(2H)-carboxylate] was tested. Which IC50 [1] did it give?
The IC50 was 1000 to 10000 nM.

And the IC50 [2]?
The IC50 was 50 to 500 nM.

What does the source list for `COC(=O)N1c2ccc(-c3cnn(C4CC4)c3)c(OCC(C)(F)F)c2CC[C@@H]1C` [I-12, (S)-methyl 6-(1-cyclopropyl-1H-pyrazol-4-yl)-5-(2,2-difluoropropoxy)-2-methyl-3,4-dihydroquinoline-1(2H)-carboxylate]?
IC50 [1]: ≥ 10000 nM; IC50 [2]: ≥ 500 nM

For `COC(=O)N1c2ccc(-c3cnn(C4CC4)c3)c(OC(CF)CF)c2CC[C@@H]1C` [I-15, (S)-methyl 6-(1-cyclopropyl-1H-pyrazol-4-yl)-5-(1,3-difluoropropan-2-yloxy)-2-methyl-3,4-dihydroquinoline-1(2H)-carboxylate], which IC50 [1] is on record?
The IC50 was 1000 to 10000 nM.

And the IC50 [2]?
Its IC50 is 50 to 500 nM.

Which IC50 [1] does the source give for `COC(=O)N1c2ccc(-c3cnn(C4CC4)c3)c(OCC(C)(C)F)c2CC[C@@H]1C` [I-16, (S)-methyl 6-(1-cyclopropyl-1H-pyrazol-4-yl)-5-(2-fluoro-2-methylpropoxy)-2-methyl-3,4-dihydroquinoline-1(2H)-carboxylate] here?
The IC50 was 1000 to 10000 nM.

And the IC50 [2]?
Its IC50 is 50 to 500 nM.

`COC(=O)N1c2ccc(-c3cnn(C4CC4)c3)c(OC(C)(C)C(N)=O)c2CC[C@@H]1C` [I-18, (S)-methyl 5-(1-amino-2-methyl-1-oxopropan-2-yloxy)-6-(1-cyclopropyl-1H-pyrazol-4-yl)-2-methyl-3,4-dihydroquinoline-1(2H)-carboxylate] was tested. Which IC50 [1] did it give?
Its IC50 is 1000 to 10000 nM.

What about the IC50 [2] of the same compound?
The IC50 was 50 to 500 nM.

Which IC50 [1] does the source give for `CCNC(=O)COc1c(-c2cnn(C3CC3)c2)ccc2c1CC[C@H](C)N2C(=O)OC` [I-21, (S)-methyl 6-(1-cyclopropyl-1H-pyrazol-4-yl)-5-(2-(ethylamino)-2-oxoethoxy)-2-methyl-3,4-dihydroquinoline-1(2H)-carboxylate] here?
Its IC50 is ≥ 10000 nM.

What about the IC50 [2] of the same compound?
Its IC50 is 50 to 500 nM.

Which IC50 [1] does the source give for `COC(=O)N1c2ccc(-c3cnn(C4CC4)c3)c(OCCN3CCCC3=O)c2CC[C@@H]1C` [I-25, (S)-methyl 6-(1-cyclopropyl-1H-pyrazol-4-yl)-2-methyl-5-(2-(2-oxopyrrolidin-1-yl)ethoxy)-3,4-dihydroquinoline-1(2H)-carboxylate] here?
Its IC50 is 1000 to 10000 nM.

What about the IC50 [2] of the same compound?
The IC50 was 50 to 500 nM.

What does the source list for `COC(=O)N1c2ccc(-c3cnn(C4CC4)c3)c(OCC(=O)N3CCOCC3)c2CC[C@@H]1C` [I-26, (S)-methyl 6-(1-cyclopropyl-1H-pyrazol-4-yl)-2-methyl-5-(2-morpholino-2-oxoethoxy)-3,4-dihydroquinoline-1(2H)-carboxylate]?
IC50 [1]: 1000 to 10000 nM; IC50 [2]: 50 to 500 nM

How did the IC50 [1] turn out when `COC(=O)N1c2ccc(-c3cnn(C4CC4)c3)c(OCCN3CCCS3(=O)=O)c2CC[C@@H]1C` [I-27, methyl (2S)-6-(1-cyclopropyl-1H-pyrazol-4-yl)-5-[2-(1,1-dioxo-1λ^6,2-thiazolidin-2-yl)ethoxy]-2-methyl-1,2,3,4-tetrahydroquinoline-1-carboxylate] was run?
The IC50 was 1000 to 10000 nM.

And the IC50 [2]?
The IC50 was < 50 nM.

What does the source list for `COC(=O)N1c2ccc(-c3cnn(C4CC4)c3)c(OCS(N)(=O)=O)c2CC[C@@H]1C` [I-28, (S)-methyl 6-(1-cyclopropyl-1H-pyrazol-4-yl)-2-methyl-5-(sulfamoylmethoxy)-3,4-dihydroquinoline-1(2H)-carboxylate]?
IC50 [1]: 1000 to 10000 nM; IC50 [2]: ≥ 500 nM

With `COC(=O)N1c2ccc(-c3cnn(C4CC4)c3)c(OCC3(CO)COC3)c2CC[C@@H]1C` [I-32, (S)-methyl 6-(1-cyclopropyl-1H-pyrazol-4-yl)-5-((3-(hydroxymethyl)oxetan-3-yl)methoxy)-2-methyl-3,4-dihydroquinoline-1(2H)-carboxylate] as the compound, how does the IC50 [1] read?
Its IC50 is 1000 to 10000 nM.

And the IC50 [2]?
The IC50 was 50 to 500 nM.

With `COC(=O)N1c2ccc(-c3cnn(C4CC4)c3)c(OC3CC(F)(F)C3)c2CC[C@@H]1C` [I-33, (S)-methyl 6-(1-cyclopropyl-1H-pyrazol-4-yl)-5-(3,3-difluorocyclobutoxy)-2-methyl-3,4-dihydroquinoline-1(2H)-carboxylate] as the compound, how does the IC50 [1] read?
The IC50 was 1000 to 10000 nM.

What about the IC50 [2] of the same compound?
The IC50 was ≥ 500 nM.

For `CC(=O)N1c2ccc(-c3cnn(C4CC4)c3)c(OCC(C)(F)F)c2CC[C@@H]1C` [I-37, (S)-1-(6-(1-cyclopropyl-1H-pyrazol-4-yl)-5-(2,2-difluoropropoxy)-2-methyl-3,4-dihydroquinolin-1(2H)-yl)ethanone], which IC50 [1] is on record?
The IC50 was 1000 to 10000 nM.

And the IC50 [2]?
Its IC50 is 50 to 500 nM.

`CC(=O)N1c2ccc(-c3cnn(C4CC4)c3)c(OC(CF)CF)c2CC[C@@H]1C` [I-38, (S)-1-(6-(1-cyclopropyl-1H-pyrazol-4-yl)-5-(1,3-difluoropropan-2-yloxy)-2-methyl-3,4-dihydroquinolin-1(2H)-yl)ethanone] was tested. Which IC50 [1] did it give?
Its IC50 is 1000 to 10000 nM.

What about the IC50 [2] of the same compound?
Its IC50 is 50 to 500 nM.

Which results are given for `CC(=O)N1c2ccc(-c3cnn(C4CC4)c3)c(OC(C)(C)C(N)=O)c2CC[C@@H]1C` [I-40, (S)-2-(1-acetyl-6-(1-cyclopropyl-1H-pyrazol-4-yl)-2-methyl-1,2,3,4-tetrahydroquinolin-5-yloxy)-2-methylpropanamide]?
IC50 [1]: 1000 to 10000 nM; IC50 [2]: 50 to 500 nM

Which results are given for `CC(=O)N1c2ccc(-c3cnn(C4CC4)c3)c(OCCC(F)(F)F)c2CC[C@@H]1C` [I-41, (S)-1-(6-(1-cyclopropyl-1H-pyrazol-4-yl)-2-methyl-5-(3,3,3-trifluoropropoxy)-3,4-dihydroquinolin-1 (2H)-yl)ethanone]?
IC50 [1]: 1000 to 10000 nM; IC50 [2]: 50 to 500 nM

`CC(=O)N1c2ccc(-c3cnn(C4CC4)c3)c(OCS(N)(=O)=O)c2CC[C@@H]1C` [I-45, (S)-(1-acetyl-6-(1-cyclopropyl-1H-pyrazol-4-yl)-2-methyl-1,2,3,4-tetrahydroquinolin-5-yloxy)methanesulfonamide] was tested. Which IC50 [1] did it give?
The IC50 was ≥ 10000 nM.

What about the IC50 [2] of the same compound?
Its IC50 is ≥ 500 nM.

With `CC(=O)N1c2ccc(-c3cnn(C4CC4)c3)c(OCCC3COC3)c2CC[C@@H]1C` [I-47, (S)-1-(6-(1-cyclopropyl-1H-pyrazol-4-yl)-2-methyl-5-(2-(oxetan-3-yl)ethoxy)-3,4-dihydroquinolin-1(2H)-yl)ethanone] as the compound, how does the IC50 [1] read?
Its IC50 is 1000 to 10000 nM.

What about the IC50 [2] of the same compound?
The IC50 was 50 to 500 nM.
